Patent publication US9868690B2, “Prodrugs of monomethyl fumarate (MMF)” (RATIOPHARM GMBH, priority 2013, dated 2018)
Structures can show the parent of a compound that is named as a salt.

Assay: Kinetic of MMF-release during incubation in intestinal fluid from the minipig
Format: in vitro ADME, Göttingen SPF minipig
Conditions: incubation in minipig small intestinal fluid diluted 1/20 v/v with 50 mM KH2PO4, pH 6.8, 37° C., samples 0-120 min (up to 1,320 min); reference DMF
Procedure: Investigation and Comparison of the Kinetic of MMF-Release of the Different Compounds of the Present Invention and DMF During Incubation in Intestinal Fluid from the Minipig
Intestinal fluid samples were prepared at CiToxLAB Scantox A/S. The samples were taken from 1 female Göttingen SPF minipig from CiToxLAB Scantox A/S standard stock, originally obtained from Ellegaard Göttingen Minipigs A/S, DK-4261 Dalmose, Denmark. The minipig was 10 months old and the body weight was 21 kg. The minipig was identified by an individual number tagged to the pinna of one ear (animal number is documented in the raw data).
The minipig was fasted for approximately 28 hours before sampling of intestinal fluid. On the day of sampling, the minipig was weighed and anaesthetised by an intramuscular injection in the neck or in the left hind leg (about 0.3 ml per kg body weight) of a mixture of Zoletil 50 Vet., Virbac, France (125 mg tiletamine and 125 mg zolazepam), Rompun Vet., Bayer, Germany (20 mg xylazine/ml, 6.5 ml), Ketaminol Vet., Veterinaria AG, Switzerland (100 mg ketamine/ml, 1.5 ml) and Methadon DAK, Nycomed Danmark, Denmark (10 mg methadon/ml, 2.5 ml).
Intestinal fluid was obtained by flushing one jejunal segment, measuring 30.2 cm, with saline. Intestinal fluid together with saline used for flushing was placed in centrifuge tubes. All samples were frozen at −70° C. and shipped on dry ice to the Sponsor for further use.
• Instrument: Acquity UPLC system coupled with a TQ detector (triple quadruple mass spectrometer) UPLC Method: • Column: Phenomenex Kinetex C18, 100 A, 2.6 μm (150×4.6 mm) • flow: 0.4 ml/min • split: appr. 100 μl/min to MS • temperature 30° C. • solvent system (isocratic): • Solvent A 25% water with 0.1% acetic acid • Solvent B 75% methanol with 0.1% acetic acid • stoptime: 6 min • autosampler temperature: 8° C. • injection volume: 4 μl • retention time: MMF: 4.3 min • MEF: 4.7 min Mass Spectrometry • software: Masslynx 4.1 • detection mode: electrospray/negative ions (ESP−) • capillary voltage: 2.3 kV • source temperature: 100° C. • desolvation temperature: 450° C. • cone voltage: 18 V • desolvation gas: N2, 650 L/h • cone gas: N2, 20 L/h • collision gas: argon, appr. 3.3*10^−3 mbar • collision energy: 11 eV • MRM [m/z]: 128.94>85.03 Monomethylfumarate dwell:200 msec • 142.99>99.06 Monoethylfumarate (ISTD) dwell:200 msec 2.1.2. Stock and Calibration Solutions
Calibration solutions were prepared by serial dilution of SSMMF; diluted small intestinal fluid (diluted by 1/20 v/v with 50 mM KH2PO4, pH 6.8; (dil IF) was used as matrix. The dilution scheme is given below:
50 μl sample (calibration solution or sample of an incubation experiment with MMF prodrugs) was mixed with 50 μl WSISTD, 20 μl formic acid and 100 μl acetonitrile. This mixture was vortexed for 15 sec and centrifuged (13,000 rpm, 3 min). Thereafter, 4 μl of the supernatant were subjected to LC-MS analysis.
2.2. Incubation Experiments with DMF (Reference) and Compounds of the Invention
Stock solutions were prepared in DMSO or in DMSO with 10% (v/v) with water. Concentrations in stock solutions were 5.00, 2.50 and 1.67 mmol for compounds with one, two and three molar MMF equivalents.
In a HPLC glass vial, 8 μl of stock solution were mixed with 792 μl dil IF and the mixture was stirred (250 rpm) in a water bath (T=37° C.).
Immediately after mixing as well as at t=15 min, 30 min, 60 min, 90 min and 120 min, 50 μl were withdrawn and prepared for LC-MS analysis as described in chapter. 2.1.3.
Incubations were continued and in case the result of analysis of the 120 min indicated the presence of remaining intact MMF-prodrug, additional samples were taken (t=360 or 420 min and at 1,260 or 1,320 min) and analysed.
The concentration/peak area ratio data pairs were subjected to regression analysis with 1/x weighting and the resulting calibration equation was used to quantify the MMF content in incubation samples.

SMILES	hydrolysis to MMF (MMF release, LC-MS) compared with DMF
COC(=O)/C=C/C(=O)OCCN1CCN(C)CC1 [Example 1b, (E)-But-2-enedioic acid methyl ester 2-(4-methyl-piperazin-1-yl) ethyl dihydrochloride]	significantly slower hydrolysis to MMF than DMF
COC(=O)/C=C/C(=O)OCCN1CCN(C(C)C)CC1 [Example 1c, (E)-But-2-enedioic acid methyl ester 2-(4-isopropyl-piperazin-1-yl) ethyl dihydrochloride]	significantly slower hydrolysis to MMF than DMF
COC(=O)/C=C/C(=O)OCCN(CCOC(=O)/C=C/C(=O)OC)CCOC(=O)/C=C/C(=O)OC [Example 2, tris-[2-(E)-3-methoxycarbonylacryloyloxy)-ethyl]amine hydrochloride]	significantly slower hydrolysis to MMF than DMF
COC(=O)/C=C/C(=O)OCCN1CCS(=O)(=O)CC1 [Example 1a, (E)-But-2-enedioic acid 2-(1,1-dioxo-1-lambda*6*-thiomorpholin-4-yl)-ethyl ester methyl ester]	significantly slower hydrolysis to MMF than DMF
COC(=O)/C=C/C(=O)OCc1oc(=O)oc1C [Example 6, (E)-but-2-enedioic acid methyl ester5-methyl-2-oxo-[1,3]dioxol-4-yl methyl ester]	significantly slower hydrolysis to MMF than DMF
COC(=O)/C=C/C(=O)OCCOC(=O)[C@@H](N)C(C)C [Example 5a, (E)-but-2-enedioic acid 2-((S)-2-amino-3-methyl-butyrryloxy)-ethyl ester methyl ester hydrochloride]	significantly slower hydrolysis to MMF than DMF
COC(=O)/C=C/C(=O)OCCN1CC[S+]([O-])CC1 [Example 1a′, (E)-But-2-enedioic acid methyl ester 2-(1-oxo-1lambda*4*-thiomorpholin-4-yl)-ethyl ester]	significantly slower hydrolysis to MMF than DMF
COC(=O)/C=C/C(=O)OCC(COC(=O)/C=C/C(=O)OC)OC(=O)/C=C/C(=O)OC [Example 3, (E)-but-2-enedioic acid 2,3-bis-(-3-methoxycarbonyl-acryloyloxy)-propyl ester methyl ester]	significantly slower hydrolysis to MMF than DMF
COC(=O)/C=C/C(=O)OCOP(=O)(OC(C)(C)C)OC(C)(C)C [Example 4a, (E)-but-2-enedioic acid di-tert-butoxy-phosphoryloxymethyl ester methyl ester]	significantly slower hydrolysis to MMF than DMF
